ChEMBL document CHEMBL1201862, “PubChem BioAssay data set” (2004)
Calls of active or inactive are those of the source.

Legend:
[1] = microbe, parasite or virus in culture; assay type: functional; conditions: Mycobacterium tuberculosis
[2] = biological target: T1, Microphthalmia-associated transcription factor (Homo sapiens, UniProt O75030); assay: reducers of TRPM1 reporter luminescence, concentration series – cell-based, SK-MEL-5, cherry-picked, set 3, MITF inhibitor project, dose response (AID 493073); assay type: functional;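 further: SK-MEL-5 melanoma cells with luciferase driven by the MITF target TRPM1 promoter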
T1 sequence (O75030 whole entry): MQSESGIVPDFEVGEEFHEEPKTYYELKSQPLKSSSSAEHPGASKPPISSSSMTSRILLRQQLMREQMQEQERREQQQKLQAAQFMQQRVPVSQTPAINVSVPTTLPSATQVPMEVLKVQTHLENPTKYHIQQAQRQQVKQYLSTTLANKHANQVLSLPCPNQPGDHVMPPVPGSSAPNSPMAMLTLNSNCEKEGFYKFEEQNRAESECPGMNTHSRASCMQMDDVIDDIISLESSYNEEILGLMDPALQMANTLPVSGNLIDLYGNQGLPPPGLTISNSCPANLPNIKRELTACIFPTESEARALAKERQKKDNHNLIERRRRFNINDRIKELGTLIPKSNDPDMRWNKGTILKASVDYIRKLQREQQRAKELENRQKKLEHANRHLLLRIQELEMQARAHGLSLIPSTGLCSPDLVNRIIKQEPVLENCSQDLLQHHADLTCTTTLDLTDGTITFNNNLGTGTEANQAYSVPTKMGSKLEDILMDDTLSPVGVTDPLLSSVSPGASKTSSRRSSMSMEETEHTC

[3] = system: A-375; assay: proliferation inhibition in MITF-low A375 cells – cell-based, cherry-pick samples, set 2, counter-screen for MITF modulator project, dose response (AID 540335); assay type: functional; conditions: Homo sapiens
[4] = NIH3T3 cell viability loss – ATP luminescence, mouse fibroblasts, counter-screen, dose response (AID 2010); assay type: functional, cell-based;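 further: cells exposed to compound for about 90 hours before reading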
[5] = HEK-293T viability loss after treatment – luminescence, T-cell screen hits, cytotoxicity control for TCR NF-kB inhibitor project, dose response (AID 489026); assay type: functional, cell-based;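 further: cells exposed to compound about 14 hours before the viability readout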
[6] = system: Vero; assay: cells; assay type: functional, cell-based; conditions: Chlorocebus sabaeus
[7] = biological target: Endoribonuclease toxin MazF (Escherichia coli K-12, UniProt P0AE70); assay: substrate-only fluorescence increase artefacts – biochemical, single-stranded RNase substrate, counter-screen for MazEF activator project, dose response (AID 588502); assay type: functional
Chain of Endoribonuclease toxin MazF (P0AE70 whole entry): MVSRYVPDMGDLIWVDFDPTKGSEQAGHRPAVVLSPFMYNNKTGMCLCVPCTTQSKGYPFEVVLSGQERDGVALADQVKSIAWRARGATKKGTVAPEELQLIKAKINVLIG

[8] = biological target: T2, Caspase-6 (Homo sapiens, UniProt P55212); assay: inhibition of CASP6 peptide cleavage – biochemical, VEID-R110 fluorescence, cherry-pick, dose response (AID 720632)
T2 sequence (P55212 whole entry): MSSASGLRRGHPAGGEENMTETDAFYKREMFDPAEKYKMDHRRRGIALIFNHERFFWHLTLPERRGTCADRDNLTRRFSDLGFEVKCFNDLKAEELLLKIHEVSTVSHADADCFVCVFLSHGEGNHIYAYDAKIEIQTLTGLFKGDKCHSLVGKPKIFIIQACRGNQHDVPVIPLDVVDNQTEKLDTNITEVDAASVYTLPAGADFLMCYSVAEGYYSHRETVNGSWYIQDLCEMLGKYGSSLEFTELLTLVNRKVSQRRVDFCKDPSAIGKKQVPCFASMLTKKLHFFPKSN

[9] = system: Vero; assay: viability of Vero cells under compound – cytotoxicity control for flavivirus capping enzyme inhibitors (AID 588742); assay type: functional; conditions: Chlorocebus sabaeus
[10] = biological target: Genome polyprotein (dengue virus type 2, UniProt P29990); assay: flavivirus cap methylation enzyme inhibition – biochemical, confirmation dose response, primary screen (AID 588689); assay type: functional
Chain of Genome polyprotein (P29990 2492-3391 limits assumed): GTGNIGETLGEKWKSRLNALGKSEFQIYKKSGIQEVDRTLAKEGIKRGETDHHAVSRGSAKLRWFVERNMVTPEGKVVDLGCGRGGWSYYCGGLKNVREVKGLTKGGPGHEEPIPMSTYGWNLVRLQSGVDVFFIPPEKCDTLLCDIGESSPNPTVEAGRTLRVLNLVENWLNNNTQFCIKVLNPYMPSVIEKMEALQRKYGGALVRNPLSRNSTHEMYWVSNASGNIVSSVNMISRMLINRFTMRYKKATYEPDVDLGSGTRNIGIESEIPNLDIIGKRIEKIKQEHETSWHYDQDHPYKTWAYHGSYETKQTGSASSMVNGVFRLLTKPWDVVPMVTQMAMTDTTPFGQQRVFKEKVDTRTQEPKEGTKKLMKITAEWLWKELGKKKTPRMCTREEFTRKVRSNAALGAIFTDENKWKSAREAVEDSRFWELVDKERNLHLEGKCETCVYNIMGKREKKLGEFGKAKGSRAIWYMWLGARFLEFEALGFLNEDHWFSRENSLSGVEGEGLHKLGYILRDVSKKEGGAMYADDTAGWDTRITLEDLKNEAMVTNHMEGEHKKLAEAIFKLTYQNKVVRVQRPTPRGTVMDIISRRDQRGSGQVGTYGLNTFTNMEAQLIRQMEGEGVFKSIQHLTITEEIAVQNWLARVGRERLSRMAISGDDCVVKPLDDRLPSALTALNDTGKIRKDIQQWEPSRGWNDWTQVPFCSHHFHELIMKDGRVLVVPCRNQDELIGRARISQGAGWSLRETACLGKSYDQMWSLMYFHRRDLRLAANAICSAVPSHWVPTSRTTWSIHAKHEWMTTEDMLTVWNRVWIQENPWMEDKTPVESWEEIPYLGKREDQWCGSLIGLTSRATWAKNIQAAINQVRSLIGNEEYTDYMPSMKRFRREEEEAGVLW

[11] = biological target: Heat shock cognate 71 kDa protein (Homo sapiens, UniProt P11142); assay: small molecules displacing fluorescent ligand from Hsc70 – biochemical, fluorescence polarization, primary screen (AID 568)
Chain of Heat shock cognate 71 kDa protein (P11142 whole entry): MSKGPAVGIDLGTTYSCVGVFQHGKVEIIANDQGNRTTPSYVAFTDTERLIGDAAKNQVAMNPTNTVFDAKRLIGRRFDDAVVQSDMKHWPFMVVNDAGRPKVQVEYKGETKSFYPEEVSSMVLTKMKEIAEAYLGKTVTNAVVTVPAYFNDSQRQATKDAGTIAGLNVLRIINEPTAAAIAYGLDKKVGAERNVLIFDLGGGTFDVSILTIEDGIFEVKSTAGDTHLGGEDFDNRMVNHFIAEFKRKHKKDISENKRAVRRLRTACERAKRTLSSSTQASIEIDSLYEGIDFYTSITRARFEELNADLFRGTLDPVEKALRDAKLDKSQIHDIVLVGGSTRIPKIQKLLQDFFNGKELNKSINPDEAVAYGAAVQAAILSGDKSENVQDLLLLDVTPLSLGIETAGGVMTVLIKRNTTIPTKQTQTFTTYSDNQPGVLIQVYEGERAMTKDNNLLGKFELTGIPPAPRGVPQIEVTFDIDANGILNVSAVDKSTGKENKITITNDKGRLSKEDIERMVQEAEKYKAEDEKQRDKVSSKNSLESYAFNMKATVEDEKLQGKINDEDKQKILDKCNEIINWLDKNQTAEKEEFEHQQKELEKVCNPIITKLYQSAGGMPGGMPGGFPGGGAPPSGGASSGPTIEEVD

[12] = biological target: T3, Neuropeptide Y receptor type 1 (Homo sapiens, UniProt P25929); assay: Fluorescence-based counterscreen for agonists of NPY-Y2: cell-based high-throughput dose response assay for agonists of NPY-Y1.; assay type: functional
T3 sequence (P25929 whole entry): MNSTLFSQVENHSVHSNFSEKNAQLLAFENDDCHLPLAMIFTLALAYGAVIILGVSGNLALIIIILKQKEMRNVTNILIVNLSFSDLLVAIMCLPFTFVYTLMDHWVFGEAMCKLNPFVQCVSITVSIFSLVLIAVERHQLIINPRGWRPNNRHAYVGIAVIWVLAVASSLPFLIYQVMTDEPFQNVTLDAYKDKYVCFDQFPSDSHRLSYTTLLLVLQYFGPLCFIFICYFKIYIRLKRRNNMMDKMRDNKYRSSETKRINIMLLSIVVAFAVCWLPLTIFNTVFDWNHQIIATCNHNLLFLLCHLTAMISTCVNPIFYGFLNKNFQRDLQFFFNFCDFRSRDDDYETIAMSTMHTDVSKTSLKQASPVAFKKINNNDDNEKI

[13] = biological target: T4, Calpain-2 catalytic subunit (Sus scrofa, UniProt P43367); assay: m-calpain protease blockers, concentration series – biochemical, fluorogenic peptide substrate, dose response (AID 1420); assay type: functional
T4 sequence (P43367 whole entry): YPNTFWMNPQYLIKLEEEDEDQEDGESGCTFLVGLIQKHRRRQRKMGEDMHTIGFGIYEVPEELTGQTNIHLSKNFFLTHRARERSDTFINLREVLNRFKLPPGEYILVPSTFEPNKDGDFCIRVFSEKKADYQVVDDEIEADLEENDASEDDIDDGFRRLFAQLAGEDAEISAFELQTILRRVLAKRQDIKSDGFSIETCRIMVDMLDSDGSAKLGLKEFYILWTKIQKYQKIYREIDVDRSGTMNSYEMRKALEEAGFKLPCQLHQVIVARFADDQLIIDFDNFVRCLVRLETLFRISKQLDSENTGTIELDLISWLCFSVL

[14] = biological target: Eukaryotic translation initiation factor 4E (Mus musculus, UniProt P63073); assay: blockers of eIF4G binding by eIF4E – biochemical, TR-FRET, dose response (AID 855); assay type: functional;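 further: potency for disrupting eIF4E binding to eIF4GI seen as loss of FRET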
Chain of Eukaryotic translation initiation factor 4E (P63073 whole entry): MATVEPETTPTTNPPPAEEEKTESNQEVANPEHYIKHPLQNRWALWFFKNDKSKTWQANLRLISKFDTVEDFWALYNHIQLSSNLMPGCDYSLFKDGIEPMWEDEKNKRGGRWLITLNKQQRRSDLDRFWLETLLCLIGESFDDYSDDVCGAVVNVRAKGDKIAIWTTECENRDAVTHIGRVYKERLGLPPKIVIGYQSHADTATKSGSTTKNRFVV

[15] = rise of 2N DNA cells, HeLa – IC50, dose response (AID 1117349); assay type: functional, cell-based
[16] = cytotoxicity toward HT-29 cells – cell-based, CellTiter-Glo luminescence, IC50, dose response (AID 1117330); assay type: functional
[17] = biological target: Serine/threonine-protein phosphatase PP1-alpha catalytic subunit (Homo sapiens, UniProt P62136); assay: inhibition of protein phosphatase 1 activity – biochemical, fluorescence, dose response (AID 2394)
Chain of Serine/threonine-protein phosphatase PP1-alpha catalytic subunit (P62136 whole entry): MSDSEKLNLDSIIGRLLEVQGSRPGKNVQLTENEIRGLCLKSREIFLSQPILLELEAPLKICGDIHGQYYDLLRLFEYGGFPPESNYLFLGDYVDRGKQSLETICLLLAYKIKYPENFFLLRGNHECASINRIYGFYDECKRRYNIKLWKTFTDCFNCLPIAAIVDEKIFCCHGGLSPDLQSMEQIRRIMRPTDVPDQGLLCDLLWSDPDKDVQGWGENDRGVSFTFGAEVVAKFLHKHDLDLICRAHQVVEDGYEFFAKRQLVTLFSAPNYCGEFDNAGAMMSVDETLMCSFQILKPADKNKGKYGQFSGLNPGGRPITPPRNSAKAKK

[18] = biological target: Lysine-specific demethylase 4C (Homo sapiens, UniProt Q9H3R0); assay: inhibition of JMJD2C H3K9me3 demethylation – biochemical, DELFIA europium, cherry-picked samples, dose response (AID 488835); assay type: functional
Chain of Lysine-specific demethylase 4C (Q9H3R0 whole entry): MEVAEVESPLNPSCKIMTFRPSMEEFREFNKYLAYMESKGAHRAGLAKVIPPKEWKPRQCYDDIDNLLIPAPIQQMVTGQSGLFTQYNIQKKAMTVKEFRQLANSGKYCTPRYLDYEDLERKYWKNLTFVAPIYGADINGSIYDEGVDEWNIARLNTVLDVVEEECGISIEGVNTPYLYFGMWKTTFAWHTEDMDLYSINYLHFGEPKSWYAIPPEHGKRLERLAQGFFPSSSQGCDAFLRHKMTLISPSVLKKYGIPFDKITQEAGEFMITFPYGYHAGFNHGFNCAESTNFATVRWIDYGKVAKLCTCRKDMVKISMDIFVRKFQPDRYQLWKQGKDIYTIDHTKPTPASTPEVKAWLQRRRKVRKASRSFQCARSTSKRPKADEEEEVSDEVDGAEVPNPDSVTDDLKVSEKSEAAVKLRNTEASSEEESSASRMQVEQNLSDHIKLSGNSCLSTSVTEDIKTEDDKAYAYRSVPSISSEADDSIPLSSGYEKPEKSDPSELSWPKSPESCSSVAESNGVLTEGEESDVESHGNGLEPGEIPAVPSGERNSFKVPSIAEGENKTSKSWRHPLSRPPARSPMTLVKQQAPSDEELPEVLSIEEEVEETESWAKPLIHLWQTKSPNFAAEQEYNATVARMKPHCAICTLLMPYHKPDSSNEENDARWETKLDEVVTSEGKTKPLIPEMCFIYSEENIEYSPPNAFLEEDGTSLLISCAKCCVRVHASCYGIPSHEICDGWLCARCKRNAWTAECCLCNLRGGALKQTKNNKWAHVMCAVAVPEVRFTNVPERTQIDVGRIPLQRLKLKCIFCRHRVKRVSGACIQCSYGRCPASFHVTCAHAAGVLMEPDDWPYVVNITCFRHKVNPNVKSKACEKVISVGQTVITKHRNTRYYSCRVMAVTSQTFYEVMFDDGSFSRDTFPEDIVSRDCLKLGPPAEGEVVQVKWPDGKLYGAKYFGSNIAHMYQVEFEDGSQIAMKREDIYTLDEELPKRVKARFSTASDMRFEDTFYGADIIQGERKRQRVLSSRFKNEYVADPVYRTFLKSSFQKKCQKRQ

[19] = biological target: Fructose-bisphosphate aldolase (Mycobacterium tuberculosis, UniProt P9WQA3); assay: Fluorescence-based biochemical high throughput dose response assay for inhibitors of the fructose-bisphosphate aldolase (FBA) of M. tuberculosis.; assay type: functional
Chain of Fructose-bisphosphate aldolase (P9WQA3 whole entry): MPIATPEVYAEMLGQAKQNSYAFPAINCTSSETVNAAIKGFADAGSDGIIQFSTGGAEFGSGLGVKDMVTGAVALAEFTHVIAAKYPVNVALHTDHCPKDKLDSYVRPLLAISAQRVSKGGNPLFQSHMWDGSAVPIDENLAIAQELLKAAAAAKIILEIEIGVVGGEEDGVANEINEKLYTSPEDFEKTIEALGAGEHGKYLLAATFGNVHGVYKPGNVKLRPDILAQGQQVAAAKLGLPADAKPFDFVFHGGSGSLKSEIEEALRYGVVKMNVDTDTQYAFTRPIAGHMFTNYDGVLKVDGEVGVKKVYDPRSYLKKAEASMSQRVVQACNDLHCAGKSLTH

Compound: CC1(C)Cc2ccccc2C2=NNC(=O)C2=N1
- CC50 [1]: 31.2 µM (active)
- AC50 [2]: 3.62 µM (active)
- AC50 [3]: 35.3 µM (active)

Compound: CCCC(=O)NC(c1ccc(C(C)C)cc1)c1ccc2cccnc2c1O (centres undefined)
- EC50 [4]: 3.75 µM (active)
- IC50 [5]: > 80 µM (inactive)
- IC50 [6]: > 25 µM (active)

Compound: O=[N+]([O-])c1ccc(Sc2cccc[n+]2[O-])c2nonc12
- EC50 [7]: > 99 µM (inactive)
- AC50 [8]: 7.21 µM (active)

Compound: CCc1ccc(S(=O)(=O)Nc2cc(SCC(=O)O)c(O)c3ccccc23)cc1
- CC50 [9]: 33.6 µM (active)
- IC50 [10]: 9.53 µM (active)

Compound: Oc1c(Cl)cc(Cl)c(Cl)c1Cc1c(O)c(Cl)cc(Cl)c1Cl [HEXACHLOROPHENE]
- IC50 [11]: 27.4 µM (active)
- EC50 [12]: 9.8 µM (active)
- IC50 [13]: 3.73 µM (active)
- IC50 [14]: 17.9 µM (active)
- IC50 [15]: > 10 µM (inactive)
- IC50 [16]: 0.46 µM (active)

Compound: N#Cc1c(N2CCCCC2)nc(N)c2c(N)nc(SCC(=O)O)cc12
- IC50 [17]: 44.1 µM (not active)
- AC50 [18]: 5.4 µM (active)
- IC50 [19]: 8.03 µM (active)
